These results are taken from ChEMBL document CHEMBL2074364, “Reversal of multidrug resistance of cancer through inhibition of P-glycoprotein by 5-bromotetrandrine” (Cancer Chemother Pharmacol, 2005).

The target in data set [1] is T1, ATP-dependent translocase ABCB1 (Homo sapiens, UniProt P08183). Nature of the data set: TP_TRANSPORTER: cell accumulation of doxorubicin in MCF-7/Dox cells. Format: functional, cell-based.
Data set [2] concerns the target T1, ATP-dependent translocase ABCB1. Put plainly: TP_TRANSPORTER: increase in Doxorubicin intracellular accumulation in MCF-7/Dox cells. Format: functional, cell-based.

T1 sequence (P08183 whole entry): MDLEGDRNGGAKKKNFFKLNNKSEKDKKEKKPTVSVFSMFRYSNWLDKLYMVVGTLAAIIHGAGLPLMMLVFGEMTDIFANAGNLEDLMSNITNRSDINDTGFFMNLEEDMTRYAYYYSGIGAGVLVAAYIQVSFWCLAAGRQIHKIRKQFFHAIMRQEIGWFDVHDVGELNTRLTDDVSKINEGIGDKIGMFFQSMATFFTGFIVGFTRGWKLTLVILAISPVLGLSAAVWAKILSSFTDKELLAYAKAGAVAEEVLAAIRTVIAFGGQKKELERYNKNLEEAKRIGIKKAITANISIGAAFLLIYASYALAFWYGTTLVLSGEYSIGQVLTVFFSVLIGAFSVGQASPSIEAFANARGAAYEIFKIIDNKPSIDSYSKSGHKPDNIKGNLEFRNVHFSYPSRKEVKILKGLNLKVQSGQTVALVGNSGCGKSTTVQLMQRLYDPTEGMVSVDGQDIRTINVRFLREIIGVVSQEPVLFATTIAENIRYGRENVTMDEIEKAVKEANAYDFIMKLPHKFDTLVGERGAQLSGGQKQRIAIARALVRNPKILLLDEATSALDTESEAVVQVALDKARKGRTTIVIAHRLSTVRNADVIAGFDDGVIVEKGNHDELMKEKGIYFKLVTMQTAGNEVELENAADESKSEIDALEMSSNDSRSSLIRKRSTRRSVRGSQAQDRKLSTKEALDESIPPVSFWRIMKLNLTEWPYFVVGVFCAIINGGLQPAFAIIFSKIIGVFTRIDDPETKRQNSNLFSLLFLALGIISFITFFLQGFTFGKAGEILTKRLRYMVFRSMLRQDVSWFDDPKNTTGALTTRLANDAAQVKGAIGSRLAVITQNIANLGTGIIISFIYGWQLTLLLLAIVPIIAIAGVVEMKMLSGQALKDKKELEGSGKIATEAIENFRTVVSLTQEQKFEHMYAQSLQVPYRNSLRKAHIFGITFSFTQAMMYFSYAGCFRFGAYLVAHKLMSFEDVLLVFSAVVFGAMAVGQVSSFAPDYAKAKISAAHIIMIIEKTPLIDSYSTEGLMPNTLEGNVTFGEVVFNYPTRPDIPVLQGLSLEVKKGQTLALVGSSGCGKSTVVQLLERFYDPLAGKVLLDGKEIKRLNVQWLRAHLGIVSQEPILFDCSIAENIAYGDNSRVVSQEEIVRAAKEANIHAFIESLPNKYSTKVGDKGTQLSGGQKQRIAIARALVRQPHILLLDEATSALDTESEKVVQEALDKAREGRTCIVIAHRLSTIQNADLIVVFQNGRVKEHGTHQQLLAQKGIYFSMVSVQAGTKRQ

`COc1ccc2cc1Oc1ccc(cc1)C[C@@]1(C)c3cc(c(OC)cc3CCN1C)Oc1c(OC)c(OC)c(Br)c3c1[C@](C)(C2)N(C)CC3` [BROMOTETRANDRINE]: the Activity entry in data set [1] and in data set [2] was “inhibitor [+]” throughout.
